Data as given in ChEMBL document CHEMBL1146748, “Synthesis and preliminary biological evaluation of truncated zoanthenol analogues” (Bioorg Med Chem Lett, 2004).

tested on: MH60; experiment: Compound was tested for inhibition of interleukin-6-dependent MH60 cell growth; Very weak inhibition; assay type: functional, cell-based; settings: not given

| Structure (SMILES) | IC50 |
| --- | --- |
| Cc1cc(O)c2c(c1)[C@]1(C)CC(=O)[C@@]3(C)CCCC[C@@]3(C)[C@@]1(C)C(=O)[C@@H]2C | Very weak inhibition |
| C[C@H]1C[C@@H]2CN3C45CCC[C@](C)(CC(=O)O4)[C@]5(C)CC[C@@]3(C1)O2 | Very weak inhibition |

tested on: MH60; experiment: Compound was tested for inhibition of interleukin-6-dependent MH60 cell growth; assay type: functional, cell-based; settings: Mus musculus

| Structure (SMILES) | IC50 [µM] |
| --- | --- |
| CC1=CC(=O)[C@H]2CC(=O)[C@H]3[C@@](C)(CC4=[N+]5C[C@H]6C[C@H](C)C[C@]5(CC[C@@]4(C)[C@@]3(C)CC(=O)O)O6)[C@@H]2C1 | 13 |
| CC1=CC(=O)[C@@H]2[C@@H](C1)[C@]1(C)CC3=[N+]4C[C@H]5C[C@H](C)C[C@]4(CC[C@@]3(C)[C@@](C)(CC(=O)O)[C@H]1C(=O)[C@@H]2C)O5 | 26 |
| C[C@H]1C[C@@H]2C[N+]3=C4CCC[C@](C)(CC(=O)O)[C@]4(C)CC[C@@]3(C1)O2 | ~70 |
| CCCCC1=C(C)C(=O)[C@](C)(CN2c3ccccc3[C@]3(O)CCOC23)C1=O (stereo partly specified) [MADINDOLINE A] | 8 |
